The values below are quoted from earlier work in patent publication US10668050B2, “Compositions, methods and kits for treating diarrhea-predominant irritable bowel syndrome” (RedHill Biopharma Ltd., priority 2014, dated 2020).

For data set [1] the following is noted: scale of Pliska et al., J. Chromatog. 216, 79, 1981.

Counter-ions that a name gives are not always drawn.

In the case of `Cc1nccn1CC1CCc2c(c3ccccc3n2C)C1=O` (racemic) [Ondansetron HCl dihydrate, Ondansetron hydrochloride], the solubility result was “soluble in water and normal saline”.

With `NCC(=O)O` [glycine], in data set [1], the “hydropathy value (relative hydrophobic character)” value is listed as 0.

With `N[C@@H](CC(=O)O)C(=O)O` [aspartic acid], the “hydropathy value (relative hydrophobic character)” value in data set [1] is −2.15.

As to `CC[C@H](C)[C@H](N)C(=O)O` [iso-leucine], the “hydropathy value (relative hydrophobic character)” value in data set [1] is 1.83.
